# How the values were obtained:
# [1] = test system: FG-C cells (αv β3 integrin negative human pancreatic carcinoma cells); test: DNA synthesis ([3H]-thymidine incorporation) in insulin-stimulated FG-C cells on vitronectin or type I collagen; type: cell-based; settings: lack αv β3, FIG. 4 columns 3, 4, 7, 8, 11, 12
# Description: (§1) FG-B (columns 1, 2, 5, 6, 9, and 10) and FG-C cells (columns 3, 4, 7, 8, 11, and 12) were plated at 1×10^5 cells/well on 24-well plates that had been coated either with vitronectin (dark column) or type I collagen (open column). Plates were coated with 10 μg/ml of either vitronectin or type I collagen for 12 hours followed by blocking with 0.5% bovine serum albumin for 2 hours. Cells were incubated for 36 hours in DMEM containing 10% FCS (columns 1 to 4), or in DMEM containing 0.1% BSA followed by addition of buffer (columns 5 to 8) or 100 mM insulin (columns 9 to 12). FCS is used as a control because it provides maximal stimulation owing to the presence of high levels of growth factors and adhesion proteins.
# (§2) After 15 hours, the cells were pulse-labeled with 1 μCi/ml [^3 H]-thymidine (specific activity 6.7 Ci/mmol, DuPont NEN) for 3 hours and thymidine incorporation into DNA was determined by trichloroacetic acid precipitation and liquid scintillation counting. Error bars indicate the standard error of triplicate determinations.
# [2] = test system: HIRcB, NIH 3T3, NRK, HT29, UCLA-P3 and Panc-1 cells; test: Insulin responsiveness in a panel of αv β3 and αv β5 expressing cell lines on different substrates; type: cell-based; settings: panel of six cell lines
# Description: A correlation between αv β3 expression and increased insulin responsiveness on vitronectin was also found in a panel of three cell lines expressing αv β3 and three lines expressing only αv β5. […] All the cell lines attached equally to vitronectin. NRK, HT29, UCLA-P3 and Panc-1 attached also to laminin and collagen, and HIRcB and NIH 3T3 cells attached to laminin. The attachment to laminin and collagen was inhibited by anti-β1 antibodies (Vuori and Ruoslahti, unpublished data, and Hayman et al., J. Cell Biol. 100:1948 (1985); Hayashi et al., J. Cell biol. 110:175 (1990); Schreiner et al., Clin. Expl. Metastasis 9:163 (1991); and Cheresh et al., supra).
# [3] = test system: αv β3 integrin-IRS-1 association; test: Association of IRS-1 with the vitronectin receptor (αv β3) in insulin-stimulated HIRcB cells, immunoprecipitation/immunoblot densitometry; type: cell-based, rat
# Description: HIRcB cells were grown to 80% confluency in Dulbeccos's modified Eagle's medium (DMEM) containing 10% fetal calf serum (FCS) and 500 nM methotrexate, incubated in DMEM +0.1% BSA for 36 hours, and either left quiescent, or stimulated with 100 nM insulin (Sigma) for 3 minutes. Cell monolayers were rinsed with PBS, frozen with liquid nitrogen and lysed in NP-40 lysis buffer (20 mM Tris-HCl (pH 8.0), 1% NP-40, 10% glycerol, 137 mM NaCl, 1 mM CaCl2, 1 mM MgCl2, 1 mM sodium orthovanadate, 50 mM sodium fluoride, 1 mM phenylmethylsulfonylfluoride, 0.1 U/ml aprotinin, 10 μg/ml pepstatin A). HIRcB cells were immunoprecipitated with anti-αv β3 237 according to Suzuki et al., PNAS USA 83:8614 (1986), as shown in lanes 1 and 3, 237 preimmune serum in lane 2, anti-αv β3 1343 in lane 4, anti-αv β3 in lane 5, anti-α5 β1488 in lane 6 (made according to Argraves et al., J. Cell Biol. 105:1183 (1987)) and an unrelated rabbit antiserum (lane 7). Anti-αv β3 1343 was obtained from a person (Telios Pharmaceuticals, Inc.) and anti-αIIb β3 from Dr. Elisabetta Dejana (Mario Negri Institute, Milan, Italy). Three anti-α5 β1 antibodies and six unrelated polyclonal antibodies tested gave results similar to those shown in lanes 6 and 7. […] In lane 8, anti-αv β3 237 immunocomplexes from insulin-treated cells were dissociated and reprecipitated with the same antibody as follows. […]
# [4] = test system: FG-B cells (αv β3 integrin positive human pancreatic carcinoma cells); test: DNA synthesis ([3H]-thymidine incorporation) in insulin-stimulated FG-B cells on vitronectin or type I collagen; type: cell-based; settings: 100 mM insulin, plates coated with 10 μg/ml vitronectin or type I collagen, FIG. 4 columns 9, 10
# Description: as §1, §2
# [5] = test system: human foreskin fibroblasts; test: DNA synthesis ([3H]-thymidine incorporation) in PDGF-stimulated human foreskin fibroblasts; type: cell-based; settings: 40 ng/ml PDGF-BB, 20 μg/ml coating, FIG. 5 column 3 vs 4
# Description: (§3) Human foreskin fibroblasts (Coriell) were plated at 1×10^5 cells/well on 24-well plates that had been coated for 12 hours either with 20 μg/ml of vitronectin of 20 μg/ml of type I collagen. Cells were incubated for 36 hours in Dulbecco's modified Eagle's medium containing 0.1% bovine serum albumin followed by addition of buffer or 40 ng/ml PDGF-BB (Boehringer Mannheim). After 15 hours, the cells were pulse-labeled with 1 μCi/ml [^3 H]-thymidine (specific activity 6.7 Ci/mmol, DuPont NEN) for 3 hours and thymidine incorporation into DNA was determined by liquid scintillation counting.
# Cells were serum-starved and treated with buffer only (samples 1 and 2) or with PDGF (samples 3 and 4). Data points are the average of duplicate samples.
# NRK cells = test: DNA synthesis in IGF-1-treated NRK cells on vitronectin, collagen or laminin; type: cell-based; settings: data not shown
# Rat-1 cells = test: DNA synthesis ([3H]-thymidine incorporation) in EGF-stimulated Rat-1 cells; type: cell-based; settings: 40 ng/ml EGF, 20 μg/ml coating, FIG. 6
# Description: as §3, with “Rat-1 cells were” for “Human foreskin fibroblasts (Coriell) were”, “vitronectin or” for “vitronectin of”, “ng/ml EGF” for “ng/ml PDGF-BB”
# After being serum-starved, the cells were treated with buffer only (samples 1 and 2) or with EGF (samples 3 and 4). Data points are the average of triplicate samples.
substance,measurement,setting,value
insulin,difference in the DNA synthesis response on vitronectin and collagen,[1],no difference
same,effect of attachment to laminin on insulin responsiveness,[2],did not increase
same,time of insulin stimulation to maximal IRS-1-vitronectin receptor association,[3]; HIRcB cells,3 min
same,IRS-1 complexed with the vitronectin receptor,"[3]; insulin-stimulated HIRcB cells, share of IRS-1 of total cell lysate",Five to eight
same,higher DNA synthesis in response to insulin when plated on vitronectin than on collagen,[4],about 2.5 fold
"PDGF: platelet derived growth factor, PDGF-BB (Boehringer Mannheim)",higher DNA synthesis in response to PDGF when plated on vitronectin than on collagen,[5],about 2.3 fold
"IGF-1: insulin-like growth factor (IGF-1), signals through IRS-1",higher DNA synthesis in response to IGF-1 when plated on vitronectin than on collagen or laminin,NRK cells,about 2.3 fold
"EGF: Epidermal growth factor (Boehringer Mannheim) (NSDSECPLSHDGYCLHDGVCMYIEALDKYACNCVVGYIGERCQYRDLKWWELR; UniProt P01133 971-1023, looked up)",DNA synthesis response to EGF on vitronectin versus collagen,Rat-1 cells,same response

# From US5654267A, “Cooperative combinations of ligands contained within a matrix” (La Jolla Cancer Research Center, priority 1994, dated 1997)
